# How the values were obtained:
# [1] = system: NF-κB; assay: Inhibition of E. coli LPS-stimulated NF-κB activation (CD25 expression) in 3FP CHO cells; format: cell-based, Chinese hamster; conditions: live 7AAD(−) LPS-stimulated 3FP cells
# Description: In order to evaluate the inhibition efficacy for the activation of E. coli LPS-stimulated NF-κB in a CHO cell, % expression of CD 25 in the CHO cell was evaluated as the following method, and FACS analysis after staining with 7-AAD was carried out to evaluate the cytotoxicity. Bile salts were classified into 3 groups based on their solubility in different solvents, as follows:
# The CHO cells expressing CD25 under the regulation of a nuclear factor (NF-κB) promoter, shown FIG. 2A, were used for this experiment. Toll-like receptor 2 (TLR2) and CD14 gene-transformed CHO cells (hereinafter referred to as “3FP cells”) were also used.
# The next day, the cultured cells were treated with bile acid derivatives and LPS, and were incubated in a CO2 incubator for 15 hr at 37° C.
# After stimulating the above incubated cells for 15 hr, the culture solution was centrifuged (1200 rpm, 5 min, 4° C.) to remove the culture supernatant. The precipitate was washed twice with 200 μl of FACS buffer (1×PBS containing 1% BSA and 1 mM EDTA). 20 μl of blocking solution (PBS containing 1:10 of normal mouse serum and 1:3 of anti-human CD14/CD32 (BD, 2.4G2) was added to each well and reacted on an ice for 30 min. A mixture solution of anti-human CD25-PE (1:16) and anti-human CD14-FITC (1:32) was added to the well and then reacted on the ice for 30 min. The reaction mixture was washed twice with 200 μl of FACS buffer, and then 200 μl of 7-AAD (1:20) was added to the reaction mixture. After the reaction mixture was reacted on the ice for 10 min, CD25 expression efficacy and cytotoxicity were analyzed by using a flow cytometer.
# In order to analyze living cells, 7-AAD(−) cells were selected and an activation of nuclear transcription factor was confirmed by the increase of CD25 expression.
# [2] = system: dendritic cells; assay: Inhibition of E. coli LPS-induced activation of dendritic cells (CD40, CD80, CD86, I-Ab expression); format: cell-based, mouse; conditions: 100 ng/ml E. coli LPS; CD11c(+)/7AAD(−) dendritic cells
# Description: In order to assay the effect of sodium glycocholate on the activation procedure of antigen presenting cells, which is induced by E. coli LPS, cells were separated from the bone marrow of recombination activating gene 2 (Rag2) deficient mouse. The separated cells were plated at 2×10^5 cells/well in a 96-well plate and then treated with 1.5 ng/ml of granulocyt-macrophage colony-stimulating factor (GM-CSF) and 0.75 ng/ml of interleukin-4 followed by the differentiation of the cells into dentritic cells through 6-day incubation.
# The dendritic cells were well mixed with sodium glycocholate and LPS. The mixtures were stimulated for 18 hours at 37° C., and stained with anti-CD40-FITC, anti-CD80-FITC, anti-I-Ab-PE, anti-CD86-PE, 7AAD and anti-CD11c-APC, then the cells were assayed via a flow cytometer. Each group was treated and assayed at least twice, and the results were statistically analyzed through t-test. The results were p<0.05 compared with the experimental groups treated by only LPS.
# As shown FIGS. 9A-9B to 11A-11B, in order to assay only living dedritic cells, CD11c(+)/7AAD(−) cells were selected and then the expressions of dendritic cell costimulatory molecules and I-Ab were assayed.
# [3] = system: dendritic cells; assay: Inhibition of LPS-induced nitric oxide generation, dendritic cells (Griess); format: cell-based, mouse; conditions: dendritic cells stimulated by LPS, 18 hours
# Description: (§1) Then, the resulting dendritic cell mixtures were plated, by […] each, in a 96-well plate. Griss reagents were added to each well, and the 96-well plate was covered with foils and kept reacting for 15 min at room temperature. Absorbance at 540 nm was measured using an ELISA reader. Macrophages separated from abdomen were also treated with sodium glycocholate, sodium taurochenodeoxycholate and sodium taurodeoxycholate, respectively, and then stimulated with LPS for 18 hours. Thereafter, the same experiments as the dentritic cells were performed to the macrophages.
# [4] = system: macrophages; assay: Inhibition of LPS-induced nitric oxide generation, macrophages (Griess); format: cell-based, mouse; conditions: macrophages stimulated by LPS, 18 hours
# Description: as §1
Compound,inhibition effect for LPS-stimulated CD25 expression (NF-κB activation) [1],"increased expression of CD40, CD80, CD86 and I-Ab [2]",generation of NO [3],generation of NO [4]
C[C@H](CCC(=O)NCC(=O)O)[C@H]1CC[C@H]2[C@@H]3[C@H](O)C[C@@H]4C[C@H](O)CC[C@]4(C)[C@H]3C[C@H](O)[C@]12C [glycocholic acid hydrate],showed inhibition effects,–,–,–
C[C@H](CCC(=O)O)[C@H]1CC[C@H]2[C@@H]3[C@H](O)C[C@@H]4C[C@H](O)CC[C@]4(C)[C@H]3C[C@H](O)[C@]12C [cholic acid],showed inhibition effects,–,–,–
C[C@H](CCC(=O)NCCS(=O)(=O)O)[C@H]1CC[C@H]2C3[C@H](O)C[C@@H]4C[C@H](O)CC[C@]4(C)[C@H]3CC[C@]12C (stereo partly drawn) [sodium taurochenodeoxycholate],showed an inhibition effect,inhibited depending on the concentration,inhibited,inhibited
C[C@H](CCC(=O)O)[C@H]1CC[C@H]2[C@@H]3C(=O)C[C@@H]4CC(=O)CC[C@]4(C)[C@H]3CC(=O)[C@]12C [dehydrocholic acid],showed inhibition effects,–,–,–
sodium deoxycholate,showed an inhibition effect,–,–,–
C[C@H](CCC(=O)O)[C@H]1CC[C@H]2[C@@H]3[C@H](O)C[C@@H]4C[C@H](O)CC[C@]4(C)[C@H]3CC[C@]12C [chenodeoxycholic acid],showed inhibition effects,–,–,–
C[C@H](CCC(=O)NCCS(=O)(=O)O)[C@H]1CC[C@H]2[C@@H]3[C@H](O)C[C@@H]4C[C@H](O)CC[C@]4(C)[C@H]3C[C@H](O)[C@]12C [sodium taurocholate hydrate],showed an inhibition effect,–,–,–
C[C@H](CCC(=O)NCC(=O)[O-])[C@H]1CC[C@H]2[C@@H]3[C@H](O)C[C@@H]4C[C@H](O)CC[C@]4(C)[C@H]3CC[C@]12C.[Na+] [sodium glycochenodeoxycholate],showed an inhibition effect,–,–,–
C[C@H](CCC(=O)NCCS(=O)(=O)[O-])[C@H]1CC[C@H]2[C@@H]3CC[C@@H]4C[C@H](O)CC[C@]4(C)[C@H]3C[C@H](O)[C@]12C.[Na+] [sodium taurodeoxycholate hydrate],showed an inhibition effect,inhibited depending on the concentration,inhibited,inhibited

# Reference: patent US9272047B2, “Use of biological surfactant as anti-inflammatory agent and tissue preservative solution” (Shaperon Inc., priority 2007, dated 2016)
